Data reported in patent US8999970B2, “Administration of an anti-obesity compound to individuals with renal impairment” (Arena Pharmaceuticals, Inc., priority 2010, dated 2015).
Where “and” joins values, the source holds several entries; their conditions need not be identical. Equal entries are not always repeated. Entries after “also recorded” stand apart in the source; their conditions may differ.

Experiments:
[1] = Modeled steady state exposures following lorcaserin 10 mg BID (simulations and noncompartmental analysis from QD data); conditions: for AUC24 hr / Cmax / t1/2: 10 mg BID Simulation, Steady State
Description: To better assess the potential implications of M1 and M5 levels in patients, steady state exposures (i.e. the state of equilibrium obtained at the end of a certain number of dosings) following lorcaserin 10 mg twice daily (BID) dosing were modeled using simulations and noncompartmental analysis based on data from pharmacokinetic studies with once daily (QD) dosing.
To better assess the potential implications of M1 levels in subjects with renal impairment, steady state M1 exposure following lorcaserin 10 mg BID administration was modeled using simulations and noncompartmental analysis based upon data from pharmacokinetic studies with once daily (QD) dosing. This modeling is discussed below in Example 5.
To better assess the potential implications of M1 and M5 levels, steady state exposures following lorcaserin 10 mg BID dosing were modeled using simulations and noncompartmental analysis based upon data from pharmacokinetic studies with once daily (QD) dosing.

[2] = Preclinical toxicology: lorcaserin, M1 and M5 pharmacokinetics after oral administration of lorcaserin, 52 wk, monkeys; conditions: for AUC0-inf / AUClast / Cmax / tmax: Monkeys, 52 wk; for AUC0-inf in monkeys relative to predicted daily exposure in severe renal impairment / Cmax in monkeys relative to predicted Cmax in severe renal impairment: monkeys 2 mg/kg/day (NOAEL); for AUC0-inf in monkeys relative to predicted daily exposure in severe renal impairment / AUC0-inf exposure margin, monkeys vs predicted daily exposure in severe renal impairment: human 10 mg BID; for Cmax in monkeys relative to predicted Cmax in severe renal impairment: human 10 mg BID steady state; for Dose proportionality of plasma exposure: Day 1, 2 to 125 mg/kg, both sexes
Description: Lorcaserin doses of 0, 2, 10, 50, and 125 mg/kg in a 5 mL/kg dose volume were administered by nasogastric intubation once daily for 12 months to cynomolgus monkeys (4 to 6/sex/group). Two animals/sex from the control, 50 and 125 mg/kg groups were continued on study without further dosing for an additional 4 weeks prior to termination. For the first 91 days of the study, dose solutions were prepared using anhydrous lorcaserin. Starting on Day 92 and continuing for the remainder of the study, dose solutions were prepared using lorcaserin hemihydrate to match the intended commercial form. […] Evaluations included clinical signs, food consumption, BW, electrocardiograms, ophthalmic exams, and clinical pathology indices. Blood samples were collected for TK analysis on Day 1, Week 4, Day 91, Day 92, and Week 52. A full necropsy was conducted on all animals, and tissues were collected, preserved, processed, and examined microscopically. Additional sections of heart were collected to allow comprehensive evaluation of all heart valves. Heart histopathologic evaluation included atria, ventricles, interventricular septum, both AV valves (mitral and tricuspid), and the aortic and pulmonic valves.

[3] = lorcaserin 10 mg/kg/day oral, F
[4] = lorcaserin 10 mg/kg/day oral, M
[5] = lorcaserin 50 mg/kg/day oral, F
[6] = lorcaserin 50 mg/kg/day oral, M
[7] = lorcaserin 125 mg/kg/day oral, F
[8] = lorcaserin 125 mg/kg/day oral, M

## C[C@H]1CN(C(=O)O[C@@H]2O[C@H](C(=O)O)[C@@H](O)[C@H](O)[C@H]2O)CCc2ccc(Cl)cc21 [Compound M5, N-carbamoyl glucuronide of lorcaserin]
[1]; ESRD
  AUC24 hr: 20100 ng·h/mL
  Cmax: 936 ng/mL
  t1/2: 22.9 h
[1]; Mild
  AUC24 hr: 1090 ng·h/mL
  Cmax: 78.1 ng/mL
  t1/2: 5.41 h
[1]; Moderate
  AUC24 hr: 2150 ng·h/mL
  Cmax: 141 ng/mL
  t1/2: 9.83 h
[1]; Normal
  AUC24 hr: 765 ng·h/mL
  Cmax: 77.3 ng/mL
  t1/2: 6.11 h
[1]; Severe
  AUC24 hr: 4260 ng·h/mL
  Cmax: 223 ng/mL
  t1/2: 11.0 h
[2]; lorcaserin 2 mg/kg/day oral, F
  AUC0-inf: 2.13 ± 0.82 µg·h/mL
  AUClast: 1.76 ± 0.83 µg·h/mL
  Cmax: 771 ± 104 ng/mL
  tmax: 0.5 ± 0.0 h
[2]; lorcaserin 2 mg/kg/day oral, M
  AUC0-inf: 2.38 ± 0.29 µg·h/mL
  AUClast: 1.82 ± 0.57 µg·h/mL
  Cmax: 635 ± 310 ng/mL
  tmax: 0.8 ± 0.3 h
[2]; [3]
  AUC0-inf: 6.52 ± 1.52 µg·h/mL
  AUClast: 6.14 ± 1.71 µg·h/mL
  tmax: 1.0 ± 0.7 h
[2]; [4]
  AUC0-inf: 13.6 ± 5.0 µg·h/mL
  AUClast: 12.5 ± 6.1 µg·h/mL
  Cmax: 2480 ± 1140 ng/mL
  tmax: 1.8 ± 0.5 h
[2]; [5]
  AUC0-inf: 40.4 ± 13.4 µg·h/mL
  AUClast: 38.7 ± 12.7 µg·h/mL
  Cmax: 3600 ± 620 ng/mL
  tmax: 3.2 ± 1.8 h
[2]; [6]
  AUC0-inf: 71.4 ± 26.6 µg·h/mL
  AUClast: 69.0 ± 25.8 µg·h/mL
  Cmax: 7040 ± 2050 ng/mL
  tmax: 2.3 ± 1.9 h
[2]; [7]
  AUC0-inf: 140 ± 78 µg·h/mL
  AUClast: 134 ± 78 µg·h/mL
  Cmax: 19700 ± 13500 ng/mL
  tmax: 2.7 ± 2.0 h
[2]; [8]
  AUC0-inf: 182 ± 77 µg·h/mL
  AUClast: 170 ± 64 µg·h/mL
  Cmax: 15800 ± 3700 ng/mL
  tmax: 2.2 ± 1.9 h
[2]; monkeys 2 mg/kg/day
  AUC0-inf in monkeys relative to predicted daily exposure in moderate renal impairment: approximately equal
[2]
  AUC0-inf in monkeys relative to predicted daily exposure in severe renal impairment: approximately half
  Cmax in monkeys relative to predicted Cmax in severe renal impairment: 2.8-3.5 times
[2]; monkeys 10 mg/kg/day
  Exposure in monkeys relative to predicted daily exposure in moderate renal impairment: 3.0-6.3 times
  AUC0-inf exposure margin, monkeys vs predicted daily exposure in severe renal impairment: 1.5-3.2 fold
[2]; monkeys
  Dose proportionality of plasma exposure: more than dose proportional
[2]; monkeys, single or multiple doses of lorcaserin
  Exposure relative to the concomitant lorcaserin exposure, higher: up to 3 fold

## C[C@H]1CNCCc2ccc(Cl)cc21 [Lorcaserin, (R)-8-chloro-1-methyl-2,3,4,5-tetrahydro-1H-3-benzazepine]
[1]; ESRD
  AUC24 hr: 1860 ng·h/mL
  Cmax: 87.6 ng/mL
  t1/2: 24.8 h
[1]; Mild
  AUC24 hr: 1270 ng·h/mL
  Cmax: 64.1 ng/mL
  t1/2: 12.0 h
[1]; Moderate
  AUC24 hr: 935 ng·h/mL
  Cmax: 49.5 ng/mL
  t1/2: 11.5 h
[1]; Normal
  AUC24 hr: 942 ng·h/mL
  Cmax: 55.8 ng/mL
  t1/2: 8.28 h
[1]; Severe
  AUC24 hr: 835 ng·h/mL
  Cmax: 40.9 ng/mL
  t1/2: 12.8 h
[2]; monkeys
  Dose proportionality of plasma exposure: dose linear

## C[C@H]1CN(S(=O)(=O)O)CCc2ccc(Cl)cc21 [Compound M1, lorcaserin sulfamate]
[1]; Mild
  AUC24 hr: 4620 ng·h/mL
  Cmax: 207 ng/mL
  t1/2: 34.6 h
[1]; Moderate
  AUC24 hr: 9670 ng·h/mL
  Cmax: 414 ng/mL
  t1/2: 109 h
[1]; Normal
  AUC24 hr: 2790 ng·h/mL
  Cmax: 130 ng/mL
  t1/2: 30.0 h
[1]; Severe
  AUC24 hr: 25,500 hr · ng/mL
  Cmax: 1090 ng/mL
  t1/2: 99.2 h
[1]; five times the modeled mean of 1090 ng/mL
  Level some individuals with severe renal impairment might reach at steady state: over 5000 ng/mL; also recorded: more than 5000 ng/mL
[2]; lorcaserin 2 mg/kg/day oral, F
  AUC0-inf: 41 µg·h/mL and 40.9 ± 1.6 µg·h/mL
  AUClast: 39.3 ± 1.8 µg·h/mL
  Cmax: 4580 ng/mL
  tmax: 1.5 ± 0.6 h
[2]; lorcaserin 2 mg/kg/day oral, M
  AUC0-inf: 62 µg·h/mL and 61.6 ± 15.4 µg·h/mL
  AUClast: 56.4 ± 14.3 µg·h/mL
  Cmax: 5010 ng/mL
  tmax: 3.0 ± 1.2 h
[2]; [3]
  AUC0-inf: 307 ± 66 µg·h/mL
  AUClast: 269 ± 40 µg·h/mL
  Cmax: 27500 ± 6600 ng/mL
  tmax: 2.5 ± 1.0 h
[2]; [4]
  AUC0-inf: 312 ± 79 µg·h/mL
  AUClast: 276 ± 74 µg·h/mL
  Cmax: 22000 ± 7600 ng/mL
  tmax: 3.3 ± 1.5 h
[2]; [5]
  AUC0-inf: 877 ± 221 µg·h/mL
  AUClast: 771 ± 182 µg·h/mL
  Cmax: 56300 ± 13400 ng/mL
  tmax: 5.2 ± 2.4 h
[2]; [6]
  AUC0-inf: 1060 ± 313 µg·h/mL
  AUClast: 904 ± 228 µg·h/mL
  Cmax: 62300 ± 14100 ng/mL
  tmax: 4.7 ± 1.6 h
[2]; [7]
  AUC0-inf: 1910 ± 865 µg·h/mL
  AUClast: 1580 ± 501 µg·h/mL
  Cmax: 115000 ± 24000 ng/mL
  tmax: 3.5 ± 2.5 h
[2]; [8]
  AUC0-inf: 2020 ± 856 µg·h/mL
  AUClast: 1460 ± 269 µg·h/mL
  Cmax: 106000 ± 31000 ng/mL
  tmax: 3.7 ± 2.3 h
[2]
  AUC0-inf in monkeys relative to predicted daily exposure in severe renal impairment: 1.6-2.4 times
  Cmax in monkeys relative to predicted Cmax in severe renal impairment: approximately 5 times
[2]; monkeys 10 mg/kg/day
  Cmax margin, monkeys vs predicted exposure in severe renal impairment: 20-25 times
  AUC0-inf exposure margin, monkeys vs predicted daily exposure in severe renal impairment: about 12 fold
[2]; monkeys
  Dose proportionality of plasma exposure: less than dose proportional
